Results from patent US20230094922A1, “METHODS OF THERAPEUTIC PROGNOSTICATION” (GENETIKAPLUS LTD., priority 2020, published 2023).

Tested on: iPSC-derived cortical neurons
Format: cell-based
Details: responders vs non-responders after 10 μM Bupropion; NS

CC(NC(C)(C)C)C(=O)c1cccc(Cl)c1 (stereo not drawn) [Bupropion, 3-Chloro-N-tert-butyl-β-keto-α-methylphenethylamin]
logFC PARP6: −0.681
logFC PCBP4: −1.293
logFC PCDH10: −1.015
logFC PCSK1N: −1.46
logFC PDYN: −1.613
logFC PGM2L1: −1.008
logFC PHACTR3: −1.439
logFC PID1: −1.455
logFC PIK3R1: −0.9783
logFC PITPNC1: −0.8298
logFC PITPNM2: −0.7259
logFC PKIA: −1.194
logFC PLPPR2: −0.974
logFC PNMA3: −1.221
logFC PPEF1: −1.59
logFC PPFIA2: −1.898
logFC PPFIA3: −0.735
logFC PPM1K: −0.7077
logFC PPP1R13B: −1.191
logFC PPP2R2B: −1.116
logFC PPP2R2C: −1.735
logFC PPP2R5B: −1.051
logFC PRDM8: −2.418
logFC PSD: −1.027
logFC PSD2: −1.447
logFC PTPRH: −1.255
logFC PTPRN2: −1.272
logFC PTPRR: −1.517
logFC RAB3A: −1.354
logFC RAB3C: −1.236
logFC RAB6B: −1.225
logFC RAB33A: −1.51
logFC RAP1GAP: −0.7191
logFC RASGEF1B: −1.168
logFC RBFOX1: −1.576
logFC RBFOX3: −1.575
logFC RBP4: −2.21
logFC RCAN2: −1.602
logFC REM2: −1.186
logFC RETREG2: −0.5717
logFC RGR: −2.072
logFC RGS7: −1.689
logFC RHBDL3: −1.325
logFC RHOBTB2: −0.7317
logFC RIMS1: −1.83
logFC RIT2: −2.318
logFC RNF152: −1.135
logFC RNF165: −0.9556
logFC RPS6KA2: −0.8831
logFC RTN1: −1.456
logFC RUFY3: −0.7072
logFC RUNDC3B: −1.512
logFC RUNX1T1: −1.916
logFC RXRG: −1.776
logFC SAMD14: −1.111
logFC SARM1: −1.209
logFC SCAPER: −0.7606
logFC SCG2: −1.691
logFC SCG3: −1.431
logFC SCN1A: −1.947
logFC SCN2A: −1.841
logFC SCN3B: −1.722
logFC SCN7A: −1.457
logFC SCN9A: −1.803
logFC SEPTIN3: −1.333
logFC SERP2: −1.449
logFC SEZ6L: −1.45
logFC SEZ6L2: −0.7768
logFC SHANK1: −1.292
logFC SHISAL1: −1.498
logFC SHISAL2A: −1.16
logFC SIDTI: −2.103
logFC SIT1: −1.927
logFC SLC4A8: −0.8668
logFC SLC7A14: −1.705
logFC SLC8A3: −1.496
logFC SLC17A6: −2.069
logFC SLC22A15: −0.9589
logFC SLC22A23: −1.148
logFC SLC37A1: −1.052
logFC SLC38A4: −1.273
logFC SLCO2B1: −1.491
logFC SLCO5A1: −1.211
logFC SLITRK1: −1.312
logFC SMAP2: −0.8196
logFC SMPD3: −1.445
logFC SNAP91: −1.605
logFC SNCB: −1.524
logFC SNCG: −1.396
logFC SNPH: −1.134
logFC SNTG1: −2.048
logFC SPNS2: −1.211
logFC SPTBN4: −1.122
logFC SRRM3: −1.175
logFC SSTR2: −1.449
logFC ST8SIA2: −1.153
logFC STK32B: −1.644
logFC STX1B: −0.9907
logFC STXBP1: −1.033
logFC SV2A: −0.9341
logFC SYN1: −1.543
logFC SYNGR1: −0.8271
logFC SYP: −1.709
logFC SYT1: −1.058
logFC SYT7: −1.505
logFC SYT13: −1.444
logFC TAC1: −1.101
logFC TAFA1: −2.193
logFC TAGLN3: −1.002
logFC TANC2: −0.7278
logFC TBC1D24: −0.8527
logFC TERF2IP: −0.7455
logFC TH: −1.664
logFC THRB: −2.357
logFC TIMP2: −0.878
logFC TLCD3B: −1.431
logFC TMEM59L: −0.8819
logFC TMEM121B: −0.8958
logFC TMEM132B: −1.025
logFC TMEM151A: −1.522
logFC TMEM151B: −1.463
logFC TMEM178A: −0.904
logFC TMEM246: −1.159
logFC TOM1L2: −0.7199
logFC TP53I11: −0.8407
